The values below come from patent US6972343B1, “Quaternary bis-ammonium salt precursors and their uses as prodrugs having an antiparasitic activity” (CNRS, priority 1999, dated 2005).

Data set [1] relates to P. falciparum. The experiment in a line: Antimalarial activity against P. falciparum in vitro (Desjardins [3H]hypoxanthine incorporation). The format is cell-based. Particulars: Plasmodium falciparum; in vitro growth of P. falciparum, [3H]hypoxanthine incorporation, 48 hours test; read-out: IC50. Here is the method:
FIG. 1, the anti-malarial action of a precursor of thiazolium (designated by TE4c in the examples), and corresponding thiazolium (T4) as a function of the concentration of drug, according to the Desjardins test, (Desjardins R. E. et al, Antimicrob. Agents Chemother. 1979, 16, 710-718),
The IC50 measurements are determined vis-à-vis P. falciparum according to the Desjardins method in which the incorporation of [^3H] hypoxanthine (FIG. 1) into the nucleic acids is an indicator of cell viability. In each case, optical microscopy controls are carried out.
(§1) The IC50 is the concentration which inhibits by 50% the in vitro growth of P. falciparum: the LD50 is the lethal dose corresponding to the death of 50% of the mice and the ED50 is the effective dose for inhibiting by 50% the in vivo growth of P. vinckei according to a 4-day suppressive test, TI corresponds to the therapeutic index, TI=LD50 (semi-chronic)/ED50; ip: intraperitoneal administration; po: per os.

The nature of data set [2]: Tolerance in the mouse: LD50 after acute or semi-chronic administration. The format is in vivo. The settings on record: for LD50 at 4 days / LD50: in vivo; for LD50 at 4 days: twice per day for 4 consecutive days; for LD50: single dose.
From the text: (§2) B) Antimalarial Activity in vivo Against a Mouse Infected by P. vinckei and Tolerance After Administration in Acute or Semi-chronic Conditions.
as §1

In data set [3] the test system is P. vinckei. The experiment in a line: animal or person. The format is in vivo. Particulars: Plasmodium vinckei, 96 h, mouse, 4-day suppressive test, TE4c in 50/50 PEG/castor oil, read-out: In vivo ED50 (mg/kg) (P. vinckei).
From the text: as §2, §1

A short description of data set [4]: Pharmacokinetics in the monkey (ex vivo bio-test serum level). Particulars: Macaca fascicularis, intramuscular 4 mg/kg. Here is the method:
For determination of the serum level, bio-tests are used ex vivo: briefly, the medicament is administered to the animal, then repeated blood samples are taken. The sera are decomplemented for 30 minutes at 56° C. The active metabolite content is then determined by incubation of different concentrations (dichotomic dilution) of each serum, in the presence of suspensions of erythrocytes infected by P. falciparum, according to the DESJARDINS method with [^3H] hypoxanthine.
The results are expressed in IS50, which corresponds to the percentage of serum (containing an active metabolite) capable of inhibiting the growth of P. falciparum by 50%. […]
The results are expressed as the log (serum level of medicaments), as a function of time, which allows the evaluation of the half-time for distribution to the serum compartment t1/2(d); the half-time for elimination of the serum compartment (t1/2(e)); of C0), corresponding to the serum level originally extrapolated during the elimination phase; the AUC (which indicates the quantity of drug circulating in the blood stream); and the relative bio-availability in the oral route administration method, as against the intraperitoneal route method [AUC (po)/AUC (ip)] which is an indicator of the degree of absorption by oral route. […]

In data set [5] the test system is Babesia divergens. The experiment in a line: Antibabesiasis activity in vitro against Babesia divergens. It counts as cell-based. Here is the method: (§3) The products TE4c, TS3b and P1 were also evaluated in vitro for their activities against Babesia divergens and B. canis.
For data set [6], the system named is B. canis. The experiment in a line: Antibabesiasis activity in vitro against B. canis. The format is cell-based. Here is the method: as §3

pIC50: −log10 of the molar value. Like-named read-outs stand apart in the source and are kept apart here.

Usually pIC50 stands for the IC50 on a negative log10 scale, so that one unit is a factor of ten. As to `CCCSSC(CCO)=C(C)N(C=O)CCCCCCCCCCCCN(C=O)C(C)=C(CCO)SSCCC` [TS3b, N,N′-diformyl-N,N′-di[1-methyl-2-propyl-dithio-4-hydroxybut-1-enyl]-1,12-diaminododecane], the pIC50 is 8.89 in data set [1], greater than 7.70 in data set [5] and greater than 7.70 in data set [6]. In addition, the “Oral absorption index (LD50 po/LD50 ip ratio, acute)” value in data set [2] (acute administration) turned out to be 6.7. The LD50 at 4 days in data set [2] (ip, infected mice, ip, read-out: In vivo LD50 (mg/kg) semi-chronic in mice infected with malaria) stood at 32 mg/kg; in data set [2] (ip, TE4c value corresponds to death of only 25% of the mice, read-out: In vivo LD50 (mg/kg) (mouse) semi-chronic), 90 mg/kg; in data set [2] (po, read-out: In vivo LD50 (mg/kg) (mouse) semi-chronic) it was 410 mg/kg. The LD50 in data set [2] (ip) was found to be 240 mg/kg; in data set [2] (po), 1600 mg/kg. The results for the ED50 in data set [3] (ip) and in data set [3] (po) were roughly 7 mg/kg and roughly 180 mg/kg, respectively. For the same molecule, in data set [4], the “time of first serum level peak” value is “in less than two hours”.
